Activity calls are given as the source filed them. No cut-off for these calls is given here.
Legend:
[1] = tested on: Androgen receptor (Homo sapiens), P10275 [T878A]; experiment: Agonist activity at human androgen receptor T877A mutant relative to control; assay type: functional
[2] = biological target: T1, Bile acid receptor (Homo sapiens) (UniProt Q96RI1); experiment: Agonist activity at FXR in HepG2 cells by luciferase activity relative to CDCA at 10 uM; assay type: functional, cell-based
T1 sequence (whole entry): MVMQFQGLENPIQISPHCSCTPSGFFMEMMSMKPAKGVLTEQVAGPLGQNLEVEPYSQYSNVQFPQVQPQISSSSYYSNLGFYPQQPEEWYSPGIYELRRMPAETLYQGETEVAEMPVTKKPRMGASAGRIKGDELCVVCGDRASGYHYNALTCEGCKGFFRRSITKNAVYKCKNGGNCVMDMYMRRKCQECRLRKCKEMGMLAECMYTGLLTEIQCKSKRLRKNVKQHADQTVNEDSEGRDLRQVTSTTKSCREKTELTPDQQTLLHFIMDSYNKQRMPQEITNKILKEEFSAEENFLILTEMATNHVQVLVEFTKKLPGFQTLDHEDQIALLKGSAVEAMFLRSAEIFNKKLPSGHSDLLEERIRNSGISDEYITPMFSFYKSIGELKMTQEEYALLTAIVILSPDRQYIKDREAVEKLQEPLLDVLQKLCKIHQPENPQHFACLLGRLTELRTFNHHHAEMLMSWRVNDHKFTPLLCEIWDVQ

Chain of Androgen receptor (Homo sapiens), P10275 [T878A] (P10275 whole entry T878A): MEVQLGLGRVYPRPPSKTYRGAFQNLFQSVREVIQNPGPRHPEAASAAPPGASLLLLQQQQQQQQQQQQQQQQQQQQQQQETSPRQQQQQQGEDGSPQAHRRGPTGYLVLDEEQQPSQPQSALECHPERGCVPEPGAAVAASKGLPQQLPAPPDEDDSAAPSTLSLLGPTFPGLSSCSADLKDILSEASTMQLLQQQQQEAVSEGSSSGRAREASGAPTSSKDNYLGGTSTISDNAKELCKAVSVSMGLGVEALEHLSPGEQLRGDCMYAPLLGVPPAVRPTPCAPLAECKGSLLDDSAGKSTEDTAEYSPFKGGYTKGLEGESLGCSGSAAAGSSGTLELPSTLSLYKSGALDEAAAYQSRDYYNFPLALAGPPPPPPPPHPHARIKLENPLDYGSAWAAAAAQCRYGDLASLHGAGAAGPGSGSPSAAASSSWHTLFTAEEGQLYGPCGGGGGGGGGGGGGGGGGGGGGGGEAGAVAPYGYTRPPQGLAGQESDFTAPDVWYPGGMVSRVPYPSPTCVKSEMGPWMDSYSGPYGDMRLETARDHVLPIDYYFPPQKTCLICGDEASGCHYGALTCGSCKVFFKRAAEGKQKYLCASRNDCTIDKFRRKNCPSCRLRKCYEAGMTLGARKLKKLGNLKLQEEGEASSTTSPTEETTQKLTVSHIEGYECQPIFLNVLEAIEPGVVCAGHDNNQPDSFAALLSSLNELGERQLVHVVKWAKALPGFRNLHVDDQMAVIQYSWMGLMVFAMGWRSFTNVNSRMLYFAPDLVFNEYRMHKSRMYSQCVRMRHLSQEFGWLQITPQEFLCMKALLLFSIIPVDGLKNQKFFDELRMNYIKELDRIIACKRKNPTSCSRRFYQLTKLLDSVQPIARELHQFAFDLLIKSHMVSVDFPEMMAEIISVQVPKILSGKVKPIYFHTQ

Activity [1] | Activity [2] | SMILES
inactive | – | O=C(c1ccc(C(O)(C(F)(F)F)C(F)(F)F)cc1)N1Cc2ccccc2C[C@H]1CO
– | Active | Cc1ccc(C(=O)N2Cc3ccccc3C[C@H]2CO)cc1F
inactive | – | Cc1cc(C)cc(C(=O)N2Cc3ccccc3C[C@H]2CO)c1
